We go through four compounds from patent US4511573A, “3-Substituted-2-(heteroaryl) indoles” (Ciba-Geigy Corporation, priority 1983, dated 1985).

pIC50: −log10 of the molar value.

In one assay the target is T1, thromboxane synthetase (Homo sapiens, UniProt P24557).
T1 construct: crude microsomal preparation of thromboxane synthetase from lysed human platelets; from tissue; host or cells: human platelets (lysed, crude microsomal preparation)
T1 sequence (P24557 1-533): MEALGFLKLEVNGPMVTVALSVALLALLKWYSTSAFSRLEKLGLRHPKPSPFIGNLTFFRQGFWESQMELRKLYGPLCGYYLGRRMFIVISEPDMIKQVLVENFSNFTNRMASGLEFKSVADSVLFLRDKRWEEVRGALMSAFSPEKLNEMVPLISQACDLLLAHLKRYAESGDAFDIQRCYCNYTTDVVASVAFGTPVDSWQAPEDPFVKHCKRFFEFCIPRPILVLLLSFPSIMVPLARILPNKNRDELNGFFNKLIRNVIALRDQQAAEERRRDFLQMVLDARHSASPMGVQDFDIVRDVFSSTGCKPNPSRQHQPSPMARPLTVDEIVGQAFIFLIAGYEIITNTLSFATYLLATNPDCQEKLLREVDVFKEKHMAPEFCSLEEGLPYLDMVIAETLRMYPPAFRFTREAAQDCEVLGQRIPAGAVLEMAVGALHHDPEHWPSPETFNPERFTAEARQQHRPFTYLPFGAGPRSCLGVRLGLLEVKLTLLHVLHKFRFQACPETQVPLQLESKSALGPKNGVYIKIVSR
As to the kind of experiment: in vitro inhibition of thromboxane synthetase (14C-arachidonic acid, TxB2/PGF2α+β ratio). It is filed as biochemical. The following applies: 30 minutes incubation. On the procedure:
Res. Comm. 74, 1432 (1977); the testing procedure is as follows:
^14 C-Arachiodonic acid is incubated with an exzyme consisting of solubilized and partially purified prostaglandin cyclo-oxygenase from sheep seminal vesicles and a crude microsomal preparation of thromboxane synthetase from lysed human platelets. The test compound (dissolved in buffer, or if necessary, in a small amount of ethanol) is added to the incubation medium. At the end of the incubation period (30 minutes), Prostaglandin E2 (PGE2) is reduced to a mixture of Prostaglandin F2 α and F2 β (PGF2α+β) by addition of sodium borohydride. The radioactive products and excess substrate are extracted into ethyl acetate; the extract is evaporated to dryness; the residue is dissolved in acetone, spotted on thin-layer plates and chromatographed in the solvent system toluene: acetone: glacial acetic acid (100 volumes: 100 volumes: 3 volumes). The radioactive zones are located; those corresponding to Thromboxane B2 (TxB2) and PGF2 α+β are transferred to liquid scintillation vials and counted. The ratio of counts for TxB2 /PGF2 α+β is calculated for each concentration of test compound and IC50 values are determined graphically as the concentration of test compound at which the ratio of T×B2 /[…] is reduced to 50% of the control value.

Assay [1] addresses T2, prostaglandin cyclooxygenase (Ovis aries, UniProt P05979).
T2 construct: Lyophilized sheep seminal vesicle microsomes are utilized as the prostaglandin-synthesizing enzyme preparation; from tissue; host or cells: sheep seminal vesicle microsomes (lyophilized)
T2 sequence (P05979 25-600): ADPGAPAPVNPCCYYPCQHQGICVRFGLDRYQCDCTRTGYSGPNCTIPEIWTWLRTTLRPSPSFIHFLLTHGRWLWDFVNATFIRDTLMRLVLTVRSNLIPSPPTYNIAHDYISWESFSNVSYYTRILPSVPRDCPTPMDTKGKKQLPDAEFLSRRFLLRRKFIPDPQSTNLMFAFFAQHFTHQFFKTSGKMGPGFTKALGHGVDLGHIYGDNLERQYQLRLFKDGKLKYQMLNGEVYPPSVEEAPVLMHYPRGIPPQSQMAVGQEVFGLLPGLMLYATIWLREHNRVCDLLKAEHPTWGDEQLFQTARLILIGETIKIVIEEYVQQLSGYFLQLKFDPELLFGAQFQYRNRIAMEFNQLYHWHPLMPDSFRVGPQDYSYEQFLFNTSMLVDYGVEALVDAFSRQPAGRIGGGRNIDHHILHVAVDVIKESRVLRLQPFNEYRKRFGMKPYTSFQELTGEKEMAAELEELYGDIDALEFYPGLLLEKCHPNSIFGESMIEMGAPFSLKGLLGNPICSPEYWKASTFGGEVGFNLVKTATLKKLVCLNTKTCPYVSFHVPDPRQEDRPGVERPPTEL
As to the kind of experiment: in vitro effect on prostaglandin cyclooxygenase (14C-arachidonic acid to PGE2). It is filed as biochemical, sheep. The following applies: read-out: IC50 for inhibition of cyclooxygenase. On the procedure: The in-vitro effect on prostaglandin cyclooxygenase is measured by a modification of the method of Takeguchi et al. described in Biochemistry 10, 2372 (1971); the testing procedure is as follows: Lyophilized sheep seminal vesicle microsomes are utilized as the prostaglandin-synthesizing enzyme preparation. The conversion of ^14 C-arachidonic acid to PGE2 is measured. Test compounds (dissolved in buffer, or if necessary, in a small amount of ethanol) are added to the incubation mixture. The prostaglandins are extracted and separated by thin-layer chromatography; the plates are scanned, the radioactive zones corresponding to PGE2 are transferred to liquid scintillation vials and counted for radioactivity. IC50 values for inhibition are determined graphically as the concentration of test compound causing a 50% reduction in the amount of PGE2 synthesized.

For assay [2], the target named is T3, prostacyclin (PGI2) synthetase (Bos taurus, UniProt Q29626).
T3 construct: crude PGI2 synthetase in the form of a microsomal fraction of bovine aorta; from tissue; host or cells: bovine aorta (microsomal fraction)
T3 sequence (Q29626 1-500): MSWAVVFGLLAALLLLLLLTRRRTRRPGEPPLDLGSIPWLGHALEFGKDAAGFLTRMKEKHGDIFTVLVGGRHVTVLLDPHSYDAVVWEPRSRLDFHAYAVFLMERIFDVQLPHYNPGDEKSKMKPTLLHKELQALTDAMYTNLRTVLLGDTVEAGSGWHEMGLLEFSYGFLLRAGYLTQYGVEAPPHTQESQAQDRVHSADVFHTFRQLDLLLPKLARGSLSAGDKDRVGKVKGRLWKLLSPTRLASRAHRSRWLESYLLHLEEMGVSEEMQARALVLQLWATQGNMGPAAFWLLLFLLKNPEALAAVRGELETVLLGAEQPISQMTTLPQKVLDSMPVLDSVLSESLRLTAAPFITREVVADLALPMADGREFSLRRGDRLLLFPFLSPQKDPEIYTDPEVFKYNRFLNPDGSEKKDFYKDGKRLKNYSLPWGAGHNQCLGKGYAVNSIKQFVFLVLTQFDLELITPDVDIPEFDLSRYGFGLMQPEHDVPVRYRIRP
As to the kind of experiment: in vitro effect on prostacyclin (PGI2) synthetase (6-keto-PGF1α/PGE2 ratio). It is filed as biochemical, bovine. Particulars: pH 7.5, 30 minutes at 37° C., read-out: IC50 for inhibition of prostacyclin synthetase. The protocol:
The in-vitro effect on prostacyclin (PGI2) synthetase is measured analogous to the method of Sun et al., Prostaglandins 14, 1055 (1977);
The testing procedure is as follows:
^14 C-Arachiodonic acid is incubated with an enzyme mixture consisting of solubilized and partially purified prostaglandin cyclo-oxygenase from sheep seminal vesicles and crude PGI2 synthetase in the form of a microsomal fraction of bovine aorta.
Test compound (dissolved in buffer, or if necessary, in a small amount of ethanol) is placed in the incubation medium. The reaction mixture is incubated in 100 mM Tris HCl (pH 7.5) for 30 minutes at 37° C., acidified to pH 3 and extracted into ethyl acetate. The extract is evaporated to dryness; the residue is dissolved in acetone, spotted on thin-layer plates and chromatographed in a solvent system described by Sun et al.. The radioactive zones are located with a scanner; those corresponding to 6-keto-PGF1 α(a stable end product of prostacyclin biotransformation) and PGE2 are transferred to liquid scintillation vials and counted. The ratio of counts for 6-keto-PGF1 α/PGE2 is calculated for each concentration of test compound used. IC50 values for inhibition are determined graphically as the concentration of test compound at which the ratio of 6-keto-PGF1 α/PGE2 is reduced to 50% of the control value.

A further assay relates to platelet aggregation. As to the kind of experiment: inhibition of variously induced platelet aggregation. It is filed as cell-based.
The subject of the next assay is thrombocytopenia. Description: inhibition of variously induced thrombocytopenia. Particulars: in vivo.
The subject of a further assay is bleeding time. Description: prolongation of bleeding time in the rat. The format is in vivo. The following applies: oral, about 10 mg/kg. From the text:
Experimentally, prolongation of bleeding time in the rat is indicative of a beneficial antithrombotic effect.

The subject of another assay is thromboxane B2. Description: reduction of plasma levels of thromboxane in vivo in rats (ionophore A23187, radioimmunoassay of thromboxane B2). The following applies: rat, oral dose 0.10 mg/kg. On the procedure: (§1) The inhibition of the synthesis and the reduction of plasma levels of thromboxane is determined in vivo on administration to rats in the following manner (as adapted from the procedures described by Tai et al. in Anal. Biochem. 87:343, 1978 and by Salmon in Prostaglandins 15:383, 1978):
(§2) Rats are dosed with vehicle or test drug and injected intravenously with ionophore A23187 (0.5 mg/kg) two hours later. Blood is collected for analysis 2 minutes after the inonophore injection. A single aliquot of each plasma sample is assayed for thromboxane B2 and another aliquot for 6-keto-PGF1 α, the stable metabolites of thromboxane A2 and prostacyclin (PGI2) respectively, by radioimmunoassay.

The test system of another assay is prostacyclin. Description: plasma level of prostacyclin in vivo in rats (ionophore A23187, radioimmunoassay of 6-keto-PGF1α). Particulars: rat, oral dose 0.10 mg/kg. On the procedure: as §1, §2

Take `Cn1c(-c2cccnc2)c(CCCCCC(=O)O)c2ccccc21` [3-(5-carboxypentyl)-1-methyl-2-(3-pyridyl)indole]: the pIC50 was 8.66 on thromboxane synthetase, around 4.00 in assay [1] and around 4.00 in assay [2]. Besides, the “inhibition of variously induced platelet aggregation” value in the assay on platelet aggregation is reported as “inhibits”. The “inhibition of variously induced thrombocytopenia” value with thrombocytopenia is “inhibits”.

Regarding `O=C(O)CCCCCc1c(-c2cccnc2)[nH]c2ccccc12` [3-(5-carboxypentyl)-2-(3-pyridyl)indole], the pIC50 at thromboxane synthetase was around 8.77. In addition, in the assay with bleeding time, the “prolongation of bleeding time” value is recorded as “prolongs bleeding time”.

Turning to `Cn1c(-c2cccnc2)c(CCCCCC(=O)O)c2cc(Cl)ccc21` [3-(5-carboxypentyl)-5-chloro-1-methyl-2-(3-pyridyl)indole], the “decrease of plasma concentration of thromboxane B2” value in the assay with thromboxane B2 is recorded as “over 50%”. In the assay on prostacyclin, the “increase in the plasma level of prostacyclin” value was “approximately 8 fold”.

For the compound `O=C(O)CCCCCc1c(-c2cccnc2)[nH]c2ccc(Cl)cc12` [3-(5-carboxypentyl)-5-chloro-2-(3-pyridyl)indole], the negative-log IC50 (pIC50) on thromboxane synthetase was around 8.70.
